# According to US7078400B2, “20-HETE synthase inhibitor” (Taisho Pharmaceutical Co., Ltd., priority 1999, dated 2006):
# How the values were obtained:
# [1] = tested on: 20-HETE synthase originated from rat kidney microsome; experiment: Inhibitory effect of 20-HETE synthase originated from rat kidney microsome; format: biochemical; settings: for Inhibition rate (1 μM): 20-HETE production without compound set to 100%
# How it was run: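 Kidney microsomes from 6-week male spontaneously hypertensive rats were used with tritium-arachidonic acid and NADPH. 20-HETE was quantified by radio-HPLC on a C18 column.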
# [2] = 1 μM of subject compound, rat kidney microsome
# [3] = concentration at which 20-HETE production was inhibited to 50%, rat kidney microsome
# [4] = 1 μM of the subject compound added, rat kidney microsome
# [5] = concentration at which production of 20-HETE was inhibited to 50%, rat kidney microsome
# [6] = concentration at which production of 20-HETE was inhibited to 50%
SMILES,"Inhibition rate (1 μM) [1, 2]","IC50 [1, 3] [nM]",melting point,"Inhibition rate (1 μM) [1, 4]","IC50 [1, 5] [nM]","IC50 [1, 6] [nM]",Inhibition rate (1 μM) ([1]; 1 μM of the subject compound)
CCCCOCCOc1ccc(N/C=N/O)cc1 [Comp. 373],115.3,0.8,97 to 99 °C,–,–,–,–
O/N=C/Nc1ccc(C2CCCCC2)cc1 [Comp. 5],–,–,153 to 154 °C,99.9,3.8,–,–
O/N=C/Nc1cc(C(F)(F)F)cc(C(F)(F)F)c1 [Comp. 49],–,–,122.5 to 124 °C,46.7,–,–,–
O=C([O-])CCCCOc1ccc(N/C=N/O)cc1.[Na+] [Comp. 434],–,–,> 300 °C,–,–,3.2,–
C#CCCCOc1ccc(N/C=N/O)cc1 [Comp. 331],118.8,3.2,139 to 139.5 °C,–,–,–,–
Cc1ccc(N/C=N/O)cc1I [Comp. 55],–,–,130.5 to 132 °C,31.3,–,–,–
O/N=C/Nc1ccc(OCC2CCCCO2)cc1 (centres unmarked) [Comp. 421],–,–,153 to 154.5 °C,–,–,3.9,113.3
COc1ccc(N/C=N/O)cc1 [Comp. 18],–,–,139 to 140 °C,94.6,45.2,–,–
O/N=C/Nc1ccccc1-c1ccccc1 [Comp. 234],74.1,–,111 to 113 °C,–,–,–,–
CC(C)(C)CCOc1ccc(N/C=N/O)cc1 [Comp. 325],106,2.6,123 to 125 °C,–,–,–,–
COc1ccc(Cl)cc1N/C=N/O [Comp. 26],–,–,155 to 156.5 °C,86.0,204,–,–
C=CCCOc1ccc(N/C=N/O)cc1 [Comp. 330],118.8,2.4,122 to 124 °C,–,–,–,–
CCCCCCCCCOc1ccc(N/C=N/O)cc1 [Comp. 323],–,25.9,128 to 130 °C,–,–,–,–
O/N=C/Nc1ccc(OCCCc2ccncc2)cc1 [Comp. 366],105,1.2,188 to 189 °C,–,–,–,–
Cc1cc(N/C=N/O)ccc1C(C)C [Comp. 178],–,–,121 to 122.5 °C,91.4,9,–,–
COc1ccccc1COc1ccc(N/C=N/O)cc1 [Comp. 382],122.5,3.1,153 to 153.5 °C,–,–,–,–
CCCOC(=O)c1ccc(N/C=N/O)cc1 [Comp. 44],–,–,145 to 146 °C,–,8.1,–,–
O/N=C/Nc1ccc(/C=C/c2ccccc2)cc1 [Comp. 237],96.6,26.2,197.5 to 198 °C,–,–,–,–
COc1cccc(C(F)(F)F)c1N/C=N/O [Comp. 125],–,–,138 to 139.5 °C (dec.),67.6,–,–,–
O/N=C/Nc1ccc(Oc2ccc(Cl)cc2)cc1 [Comp. 128],–,–,143 to 145 °C,102.0,7,–,–
CC(C)c1ccc(N/C=N/O)c(Br)c1 [Comp. 58],–,–,146.5 to 148 °C,99.9,7.1,–,–
